This assay has as its target T1, CDK16 (PCTK1)/cyclin Y (Homo sapiens, UniProt Q00536).
T1 construct: purchased Thermo Fisher Scientific (Life Technologies) SelectScreen
Put plainly: SelectScreen LanthaScreen. The format is binding. The note with it: read-out: % displacement. The gist of the method: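 NU5455 was profiled across the SelectScreen Broad panel of kinase activity and binding assays. Z'LYTE reactions such as CSF1R ran at apparent Km ATP, while the Adapta CAMK1 assay used ATP listed as 10. Values are given as percent.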

This is an account of results in paper PMC6934184, “Selective DNA-PKcs inhibition extends the therapeutic index of localized radiotherapy and chemotherapy” (The Journal of Clinical Investigation, 2019).

T1 sequence (Q00536 whole entry): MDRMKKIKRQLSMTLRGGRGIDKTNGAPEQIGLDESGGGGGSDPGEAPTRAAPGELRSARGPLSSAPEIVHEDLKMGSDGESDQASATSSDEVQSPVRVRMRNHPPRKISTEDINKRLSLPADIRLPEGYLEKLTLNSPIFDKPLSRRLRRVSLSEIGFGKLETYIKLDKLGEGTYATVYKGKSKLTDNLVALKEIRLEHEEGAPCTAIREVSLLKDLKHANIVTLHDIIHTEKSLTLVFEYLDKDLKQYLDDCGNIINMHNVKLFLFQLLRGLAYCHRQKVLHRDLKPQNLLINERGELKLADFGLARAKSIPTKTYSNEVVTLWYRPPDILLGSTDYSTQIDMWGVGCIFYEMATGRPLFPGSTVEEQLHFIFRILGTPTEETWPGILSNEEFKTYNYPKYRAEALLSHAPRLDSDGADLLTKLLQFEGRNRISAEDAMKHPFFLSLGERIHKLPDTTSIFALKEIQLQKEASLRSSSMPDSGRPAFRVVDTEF
T1 sequence (Q8ND76 whole entry partner): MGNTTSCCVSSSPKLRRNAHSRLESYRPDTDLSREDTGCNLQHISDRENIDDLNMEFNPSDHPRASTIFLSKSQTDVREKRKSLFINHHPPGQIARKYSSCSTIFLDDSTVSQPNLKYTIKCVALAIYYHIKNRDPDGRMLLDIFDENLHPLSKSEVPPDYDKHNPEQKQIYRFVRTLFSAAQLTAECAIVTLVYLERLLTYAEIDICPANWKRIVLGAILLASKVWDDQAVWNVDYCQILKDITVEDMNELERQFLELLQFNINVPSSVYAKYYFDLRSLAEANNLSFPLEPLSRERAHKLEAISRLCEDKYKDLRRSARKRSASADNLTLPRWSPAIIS

Regarding `CN(C(=O)CN1CCOCC1)c1ccc2sc3c(-c4cccc5c(=O)cc(N6CC7CCC(C6)O7)oc45)cccc3c2c1` [NU5455], the inhibition at 1 µM was 7%.
